Columns and labels:
AGS cells = assay: Cancer Cell Line Proliferation (CellTiter-Glo) AGS; assay type: cell-based; details: Homo sapiens, 72 hr, read-out: CTG(IC50) ABS-72H(nM) AGS
Description: (§1) The following cancer cell lines were employed: AGS gastric carcinoma [heterozygous […]](ATCC, CRL-1739); A-427 lung carcinoma [heterozygous G12D](ATCC, HTB-53); ASPC1 pancreatic adenocarcinoina [homozygous […]](ATCC, CRL-1682) and SW1990 pancreatic adenocarcinoma [homozygous G12D](ATCC CRL-2172). Cell lines were cultured essentially according to ATCC recommendations. AGS, SW1990, and GP2D cells were plated in 96-well tissue culture plates at 4,000 cells/well and incubated at 37° C./5% CO2 for 72 hr in 100 μl of media. 3-fold serial dilutions of each test compound were prepared ranging from 20 µM to 1.02 nM. Each cell line was then treated with test compounds at various concentrations with a final concentration of 0.5% DMSO/well, and then incubated at 37° C./5% CO2 for 72 hr. 100 μl of CellTiter-Glo® Reagent (Promega Corporation, Madison, WI) was added to each well and processed according manufacturer's protocol. Results were analyzed and IC50 values were calculated in GraphPad 7 software.

GP2D cells = assay: Cancer Cell Line Proliferation (CellTiter-Glo) GP2D; assay type: cell-based; details: 72 hr, read-out: CTG(IC50) ABS-72H(nM) GP2D
Description: AGS, SW1990, and GP2D cells were plated in 96-well tissue culture plates at 4,000 cells/well and incubated at 37° C./5% CO2 for 72 hr in 100 μl of media. 3-fold serial dilutions of each test compound were prepared ranging from 20 µM to 1.02 nM. Each cell line was then treated with test compounds at various concentrations with a final concentration of 0.5% DMSO/well, and then incubated at 37° C./5% CO2 for 72 hr. 100 μl of CellTiter-Glo® Reagent (Promega Corporation, Madison, WI) was added to each well and processed according manufacturer's protocol. Results were analyzed and IC50 values were calculated in GraphPad 7 software.

KRAS(G12D)/SOS1 = molecular target: T1, KRAS(G12D)/SOS1 (Homo sapiens, UniProt P01116, G12D); assay: KRAS(G12D)/SOS1 Homogeneous Time-Resolved Fluorescence (HTRF) Assay; assay type: binding; details: absence of GTP, 4° C. for 3 hr
T1 construct: purchased Cisbio 63ADK000CB17PEH
T1 sequence (P01116 1-188 isoform P01116-2 G12D): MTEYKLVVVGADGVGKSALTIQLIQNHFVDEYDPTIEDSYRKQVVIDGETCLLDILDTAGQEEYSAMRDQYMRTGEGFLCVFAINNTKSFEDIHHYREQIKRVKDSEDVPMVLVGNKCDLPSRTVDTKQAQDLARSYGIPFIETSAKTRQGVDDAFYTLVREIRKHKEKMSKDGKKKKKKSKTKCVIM
Description: Binding of test compounds to KRAS(G12D) target protein, which in turn blocks KRAS(G12D) interaction with the SOS1 protein, was measured in the absences of GTP by homogeneous time-resolved fluorescence using the KRAS-G12D/SOS1 Binding Assay Kit (Cisbio, 63ADK000CB17PEH), following the manufacturer's instructions, except as noted. 3-fold serial dilutions of each test compound were prepared ranging from 20 µM to 1.02 nM. The test compound was mixed and incubated with reaction components, incubated in a sealed plate at 4° C. for 3 hr and fluorescence was measured using a PerkinElmer Envision plate reader. The KRAS(G12D)-SOS1 IC50 values (the concentration of 50% of the maximal inhibition) were calculated using GraphPad Prism 7 software.

SW1990 cells = assay: Cancer Cell Line Proliferation (CellTiter-Glo) SW1990; assay type: cell-based; details: Homo sapiens, 72 hr, read-out: CTG(IC50) ABS-72H(nM) SW1990
Description: as §1

[1] = Oral Bioavailability in CD-1 mice; assay type: in vivo; details: mouse, blood; male CD-1 mice, single oral dose, LC-MS/MS; read-out: % F (mean oral bioavailability)
Description: CD-1 mice were randomly assigned to 6 groups with 3 male mice in each compound group. Compounds were orally administered (P0) in a single dose to each mouse in its group. Blood samples were taken within 72 hours. Bioavailability (F %) was determined and by liquid chromatography-mass spectrometry (LC-MS/MS).

SMILES: C#Cc1c(F)ccc2cc(O)cc(-c3nc(OC)c4c(N5CC6CCC(C5)N6CC#N)nc(OCC(CN5CC6CC6C5)=C(C)C)nc4c3F)c12 (centres unmarked) [Example 14]
- IC50 (AGS cells): < 100 nM
- IC50 (GP2D cells): < 100 nM

SMILES: C#Cc1c(F)ccc2cc(O)cc(-c3nc(OC)c4c(N5CC6CCC(C5)N6)nc(OCC(=C)CN5CC6CC6C5)nc4c3F)c12 (centres unmarked) [Example 1, 4-{2-[(2-{3-azabicyclo[3.1.0]hexan-3-ylmethyl}prop-2-en-1-yl)oxy]-4-{3,8-diazabicyclo[3.2.1]octan-3-yl}-8-fluoro-5-methoxypyrido[4,3-d]pyrimidin-7-yl}-5-ethynyl-6-fluoronaphthalen-2-ol]
- IC50 (KRAS(G12D)/SOS1): < 100 nM
- IC50 (AGS cells): < 100 nM
- IC50 (GP2D cells): < 100 nM
- IC50 (SW1990 cells): < 100 nM
- bioavailability [1]: 10.6%

SMILES: C#Cc1c(F)ccc2cc(O)cc(-c3nc(OC)c4c(N5CC6CCC(C5)N6)nc(OCC(=CCC)CN5CC6CC6C5)nc4c3F)c12 (centres unmarked) [Example 7]
- IC50 (AGS cells): 100 to 1000 nM
- IC50 (GP2D cells): 100 to 1000 nM

SMILES: C#Cc1c(F)ccc2cc(O)cc(-c3nc(OC)c4c(N5CC6CCC(C5)N6)nc(OC/C(=C/CC)CN5CC6CC6C5)nc4c3F)c12 (centres unmarked) [Example 11]
- IC50 (AGS cells): < 100 nM
- IC50 (GP2D cells): < 100 nM

SMILES: C#Cc1c(F)ccc2cc(N)cc(-c3nc(OC)c4c(N5CC6CCC(C5)N6)nc(OCC(=C)CN5CC6CC6C5)nc4c3F)c12 (centres unmarked) [Example 10]
- IC50 (AGS cells): 100 to 1000 nM
- IC50 (GP2D cells): < 100 nM

SMILES: C#Cc1c(F)ccc2cc(O)cc(-c3nc(OC)c4c(N5CC6CCC(C5)N6)nc(OCC(CN5CC6CC6C5)=C(F)F)nc4c3F)c12 (centres unmarked) [Example 6]
- IC50 (AGS cells): < 100 nM
- IC50 (GP2D cells): < 100 nM
- IC50 (SW1990 cells): < 100 nM

SMILES: C#Cc1c(F)ccc2cc(O)cc(-c3nc(OC)c4c(N5CC6CCC(C5)N6)nc(OC/C(=C\CC)CN5CC6CC6C5)nc4c3F)c12 (centres unmarked) [Example 12]
- IC50 (AGS cells): 100 to 1000 nM
- IC50 (GP2D cells): < 100 nM

SMILES: C#Cc1c(F)ccc2cc(O)cc(-c3nc(OC)c4c(N5CC6CCC(C5)N6)nc(OC/C(CN5CC6CC6C5)=N/OC)nc4c3F)c12 (centres unmarked) [Example 15]
- IC50 (AGS cells): < 100 nM
- IC50 (GP2D cells): < 100 nM

SMILES: C#Cc1c(F)ccc2cc(O)cc(-c3nc(OC)c4c(N5CC6CCC(C5)N6)nc(OCC(=C)CN5CC6C(F)C6C5)nc4c3F)c12 (centres unmarked) [Example 5]
- IC50 (KRAS(G12D)/SOS1): < 100 nM
- IC50 (AGS cells): < 100 nM
- IC50 (GP2D cells): < 100 nM
- IC50 (SW1990 cells): < 100 nM
- bioavailability [1]: 7.7%

SMILES: C#Cc1c(F)ccc2cc(O)cc(-c3ncc4c(N5CC6CCC(C5)N6)nc(OCC(=C)CN5CCC(F)CC5)nc4c3F)c12 [Example 3]
- IC50 (KRAS(G12D)/SOS1): < 100 nM
- IC50 (AGS cells): < 100 nM
- IC50 (GP2D cells): < 100 nM
- IC50 (SW1990 cells): < 100 nM

SMILES: C#Cc1c(F)ccc2cc(O)cc(-c3nc(OC)c4c(N5CC6CCC(C5)N6)nc(OC/C(=C\C(F)(F)F)CN5CC6CC6C5)nc4c3F)c12 (centres unmarked) [Example 13]
- IC50 (AGS cells): 100 to 1000 nM
- IC50 (GP2D cells): 100 to 1000 nM

SMILES: C#Cc1c(F)ccc2cc(O)cc(-c3nc(OC)c4c(N5CC6CCC(C5)N6)nc(OC/C(CN5CC6CC6C5)=N\OC)nc4c3F)c12 (centres unmarked) [Example 16]
- IC50 (AGS cells): < 100 nM
- IC50 (GP2D cells): < 100 nM

SMILES: C#Cc1c(F)ccc2cc(O)cc(-c3nc(OC)c4c(N5CC6CCC(C5)N6)nc(OC/C(=C\C)CN5CC6CC6C5)nc4c3F)c12 (centres unmarked) [Example 9]
- IC50 (AGS cells): < 100 nM
- IC50 (GP2D cells): < 100 nM

SMILES: [2H]C([2H])([2H])Oc1nc(-c2cc(O)cc3ccc(F)c(C#C)c23)c(F)c2nc(OCC(=C)CN3CC4CC4C3)nc(N3CC4CCC(C3)N4)c12 (centres unmarked) [Example 4]
- IC50 (KRAS(G12D)/SOS1): < 100 nM
- IC50 (AGS cells): < 100 nM
- IC50 (GP2D cells): < 100 nM
- IC50 (SW1990 cells): < 100 nM
- bioavailability [1]: 1.7%

SMILES: [2H]C([2H])([2H])Oc1nc(-c2cc(O)cc3ccc(F)c(C#C)c23)c(F)c2nc(OCC(=C)CN3CC4C(F)C4C3)nc(N3CC4CCC(C3)N4C(=O)C(F)(F)F)c12 (centres unmarked) [Example 8]
- IC50 (AGS cells): 100 to 1000 nM
- IC50 (GP2D cells): 100 to 1000 nM

SMILES: C#Cc1c(F)ccc2cc(O)cc(-c3nc(OC)c4c(N5CC6CCC(C5)N6)nc(OC/C(=C\C#N)CN5CC6CC6C5)nc4c3F)c12 (centres unmarked) [Example 18]
- IC50 (AGS cells): 100 to 1000 nM

SMILES: C#Cc1c(F)ccc2cc(O)cc(-c3nc(OC)c4c(N5CC6CCC(C5)N6)nc(OCC(CN5CC6CC6C5)=C(C)C)nc4c3F)c12 (centres unmarked) [Example 2, 4-{2-[(2-{3-azabicyclo[3.1.0]hexan-3-ylmethyl}-3-methylbut-2-en-1-yl)oxy]-4-{3,8-diazabicyclo[3.2.1]octan-3-yl}-8-fluoro-5-methoxypyrido[4,3-d]pyrimidin-7-yl}-5-ethynyl-6-fluoronaphthalen-2-ol]
- IC50 (KRAS(G12D)/SOS1): < 100 nM
- IC50 (AGS cells): < 100 nM
- IC50 (GP2D cells): < 100 nM
- IC50 (SW1990 cells): < 100 nM
- bioavailability [1]: 12.1%

SMILES: C#Cc1c(F)ccc2c(F)c(O)cc(-c3nc(OC)c4c(N5CC6CCC(C5)N6)nc(OCC(CN5CC6CC6C5)=C(C)C)nc4c3F)c12 (centres unmarked) [Example 19]
- IC50 (AGS cells): 100 to 1000 nM
- IC50 (GP2D cells): < 100 nM
